Results: patent publication US20080280862A1, “Methods, compositions, and kits for the treatment of pain” (priority 2007, published 2008)

Experiments:
TNFα = TNFα secretion by human white blood cells stimulated with PMA/ionomycin, synergy score; type: cell-based; design: key: S = Σ Idata(Idata−ILoewe) × ln dilution factors; volume over Loewe additivity; settings: PBMC stimulated with PMA/Ionomycin
Experimental: A 100 μl suspension of diluted human white blood cells contained within each well of a polystyrene 384-well plate (NalgeNunc) was stimulated to secrete TNFα by treatment with a final concentration of 10 ng/mL phorbol 12-myristate 13-acetate (Sigma, P-1585) and 750 ng/mL ionomycin (Sigma, I-0634). Various concentrations of each test compound were added at the time of stimulation. After 16-18 hours of incubation at 37° C. in a humidified incubator, the plate was centrifuged and the supernatant transferred to a white opaque polystyrene 384-well plate (NalgeNunc, Maxisorb) coated with an anti-TNFα antibody (PharMingen, #551220). After a two-hour incubation, the plate was washed (Tecan PowerWasher 384) with PBS containing 0.1% Tween 20 and incubated for an additional one hour with another anti-TNFα antibody that was biotin labeled (PharMingen, #554511) and HRP coupled to strepavidin (PharMingen, #13047E). After the plate was washed with 0.1% Tween 20/PBS, an HRP-luminescent substrate was added to each well and light intensity measured using a LJL Analyst plate luminometer.
The synergy scores calculated for the various combinations of compounds set forth in Table 3 was calculated by the formula S=log fX log fYΣIdata(Idata−ILoewe), summed over all non-single-agent concentration pairs, and where log fX,Y are the natural logarithm of the dilution factors used for each single agent. This effectively calculates a volume between the measured and Loewe additive response surfaces, weighted towards high inhibition and corrected for varying dilution factors.

[1] = tested on: carrageenan-induced pain model in rats; test: Carrageenan pain model, mechanical allodynia by Von Frey filaments; type: in vivo, Sprague-Dawley rats; settings: for Mean change from baseline ± SEM: 25 mg/kg; for mean change from baseline: Table 4, 25 mg/kg ip
Experimental: The carrageenan model is a fast, reliable model used to assess the ability of analgesics to block inflammatory pain. The analgesic effects of test article combinations on pain generation are assayed using the carrageenan-induced pain model in rats. Adult male Sprague-Dawley rats are administered study drugs intraperitoneally (vehicle, tricyclic compound (TCA), steroid or TCA/Steroid test article combinations) once daily for 2 days (day −2 and day −1) and 30 minutes prior to the carrageenan injection on day 0 (time=0). For the carrageenan injection, animals are lightly anesthetized and 0.1 ml of 2% carrageenan is injected into the plantar surface of the right hind paw. The positive control diclofenac at a dose of 25 mg/kg is administered intraperitoneally immediately before the carrageenan injection. Paw volumes (right and left) are measured using a plathysmometer before drug administration on day −2 and serve as a baseline measurement. The paw volumes are measured again two hours post carrageenan injection. The degree of mechanical allodynia is measured by a blinded observer using Von Frey filaments applied to the plantar surface of the hind paws in an increasing numerical order. Each filament increases the force applied on the paw. The filaments are applied until animal paw withdrawal is achieved. This procedure is carried out before drug administration (day −2), on day −1 and on day 0 at time=0, 20, 40, 60, 80 and 120 minutes post-carrageenan. The force (expressed in grams) required for paw withdrawal after carrageenan injection is subtracted from the force required for paw withdrawal before carrageenan injection. Results are expressed as mean change from baseline across five timepoints post carrageenan injection in Table 4.
For a synergy calculation, experimental data from the carrageenan study are fitted to a median-effect model and used to calculate the parameters' median-effect dose (Dm), slope (m), correlation coefficient (r), combination index (CI) and dose-reduction index (DRI). In addition, the probability of pain inhibition occurring after single-component (nortriptyline) versus the combination drug treatments are calculated from the negative change from baseline data using a Bayesian sensitivity analysis. The likelihood of pain inhibition is characterized for nortriptyline administered alone (1 mg/kg or 3 mg/kg) versus the fixed-dose combination treatments [prednisolone (0.3 mg/kg):nortriptyline (1 mg/kg) or prednisolone (1 mg/kg):nortriptyline (3 mg/kg)] each evaluated at 60 and 80 minutes for analgesic effect.
In another example, the effects of test article combinations on pain inhibition were assayed using the carrageenan model in rodents. Desipramine was tested alone and in combination at 0.3, 1, and 3 mg/kg and prednisolone was tested similarly at 0.3, 1 and 3 mg/kg IP.

[2] = tested on: formalin-induced pain model in rats; test: Formalin pain model, nociceptive behaviors; type: in vivo, Sprague-Dawley rats; settings: 20 mg/kg
Experimental: The formalin model is a fast, reliable model used to assess potential analgesics ability to block inflammatory pain. The analgesic effects of test article combinations on pain generation are assayed using the formalin-induced pain model in rats. Adult male Sprague-Dawley rats are administered intraperitoneally study drugs (vehicle, TCA, steroid or TCA/Steroid test article combinations) once daily for 2 days (day −2 and day −1) and 30 minutes prior to the formalin injection day on day 0 (time=0). […] To elicit a pain response, dilute formalin (2% in saline) is injected under the skin of the plantar surface of the right hindpaw. The animal is placed in an observation chamber. The pain response is a characteristic biphasic response pattern of nociceptive behaviors (lifting, licking, and biting of the injected paw). Two distinct periods of nociceptive behaviors/activity are observed and recorded: an early phase (phase I) lasting the first 5-10 min and a late phase (phase II) lasting 20-40 min after the injection of formalin. One hour of data is collected (time spent displaying pain behavior) by a blinded observer using a stopwatch. Results are expressed as the number of pain behaviors per 5 minute periods (Table 8 and Table 9).

[3] = combination with Hydrocortisone

Clc1ccc2c(c1)C(N1CCNCC1)=Nc1ccccc1O2 [Amoxapine]
Synergy Score based on TNF-α inhibition (TNFα; combination with Betamethasone): 0.68
Synergy Score based on TNF-α inhibition (TNFα; combination with Budesonide): 0.63
Synergy Score based on TNF-α inhibition (TNFα; combination with Dexamethasone): 1.3
Synergy Score based on TNF-α inhibition (TNFα; [3]): 0.56
Synergy Score based on TNF-α inhibition (TNFα; combination with Prednisolone): 1.1
Synergy Score based on TNF-α inhibition (TNFα; combination with Triamcinolone): 0.37

CN(C)CCCN1c2ccccc2CCc2ccc(Cl)cc21 [Clomipramine]
Synergy Score based on TNF-α inhibition (TNFα; combination with Betamethasone): 0.78
Synergy Score based on TNF-α inhibition (TNFα; combination with Budesonide): 0.61
Synergy Score based on TNF-α inhibition (TNFα; combination with Clobetasol): 0.65
Synergy Score based on TNF-α inhibition (TNFα; combination with Dexamethasone): 1.2
Synergy Score based on TNF-α inhibition (TNFα; combination with Diflorasone): 0.55
Synergy Score based on TNF-α inhibition (TNFα; [3]): 0.6
Synergy Score based on TNF-α inhibition (TNFα; combination with Prednisolone): 0.82
Synergy Score based on TNF-α inhibition (TNFα; combination with Triamcinolone): 0.5

CN(C)CCC=C1c2ccccc2C=Cc2ccccc21 [Cyclobenzaprine]
Synergy Score based on TNF-α inhibition (TNFα; combination with Betamethasone): 0.29
Synergy Score based on TNF-α inhibition (TNFα; combination with Budesonide): 0.7
Synergy Score based on TNF-α inhibition (TNFα; combination with Dexamethasone): 1.2
Synergy Score based on TNF-α inhibition (TNFα; [3]): 0.21
Synergy Score based on TNF-α inhibition (TNFα; combination with Prednisolone): 0.36
Synergy Score based on TNF-α inhibition (TNFα; combination with Triamcinolone): 0.37

O=C(O)Cc1ccccc1Nc1c(Cl)cccc1Cl [Diclofenac]
Mean AUC ± SEM ([1]; 25 mg/Kg, AUC from 20 minutes through 120 minutes following carrageenan injection): 5332 ± 772.96
Mean change from baseline ± SEM ([1]; Experiment One, 20 minutes): -17.50 ± 11.24 g
Mean change from baseline ± SEM ([1]; Experiment One, 40 minutes): -74.70 ± 13.27 g
Mean change from baseline ± SEM ([1]; Experiment One, 60 minutes): -146.70 ± 16.73 g
Mean change from baseline ± SEM ([1]; Experiment One, 80 minutes): -203.30 ± 15.02 g
Mean change from baseline ± SEM ([1]; Experiment One, 120 minutes): -259.90 ± 15.14 g
Mean change from baseline ± SEM ([1]; Experiment Two, first set of rows, 20 minutes): 5.91 ± 7.99 g
Mean change from baseline ± SEM ([1]; Experiment Two, first set of rows, 40 minutes): 3.89 ± 5.82 g
Mean change from baseline ± SEM ([1]; Experiment Two, first set of rows, 60 minutes): 5.94 ± 10.01 g
Mean change from baseline ± SEM ([1]; Experiment Two, first set of rows, 80 minutes): -2.47 ± 9.56 g
Mean change from baseline ± SEM ([1]; Experiment Two, first set of rows, 120 minutes): -11.26 ± 8.92 g
Mean change from baseline ± SEM ([1]; Experiment Two, second set of rows, 20 minutes): -8.50 ± 5.56 g
Mean change from baseline ± SEM ([1]; Experiment Two, second set of rows, 40 minutes): -12.75 ± 6.22 g
Mean change from baseline ± SEM ([1]; Experiment Two, second set of rows, 60 minutes): -8.50 ± 8.50 g
Mean change from baseline ± SEM ([1]; Experiment Two, second set of rows, 80 minutes): -12.75 ± 6.22 g
Mean change from baseline ± SEM ([1]; Experiment Two, second set of rows, 120 minutes): -17.75 ± 6.74 g
mean change from baseline ([1]; 20 minutes post carrageenan): −17.50 ± 11.24 grams
mean change from baseline ([1]; 40 minutes post carrageenan): −74.70 ± 13.27 grams
mean change from baseline ([1]; 60 minutes post carrageenan): −146.70 ± 16.73 grams
mean change from baseline ([1]; 80 minutes post carrageenan): −203.30 ± 15.02 grams
mean change from baseline ([1]; 120 minutes post carrageenan): −259.90 ± 15.14 grams

CN1CC[C@]23c4c5ccc(O)c4O[C@H]2[C@@H](O)C=C[C@H]3[C@H]1C5 [Morphine]
Mean number of behaviors per 5 minute block ([2]; Experiment One, amitriptyline, 5 minutes): 116.0 ± 39.2
Mean number of behaviors per 5 minute block ([2]; Experiment One, amitriptyline, 10 minutes): 19.0 ± 13.7
Mean number of behaviors per 5 minute block ([2]; Experiment One, amitriptyline, 15 minutes): 17.0 ± 10.4
Mean number of behaviors per 5 minute block ([2]; Experiment One, amitriptyline, 20 minutes): 53.0 ± 32.2
Mean number of behaviors per 5 minute block ([2]; Experiment One, amitriptyline, 25 minutes): 77.0 ± 40.2
Mean number of behaviors per 5 minute block ([2]; Experiment One, amitriptyline, 30 minutes): 65.0 ± 36.2
Mean number of behaviors per 5 minute block ([2]; Experiment One, amitriptyline, 35 minutes): 66.0 ± 34.4
Mean number of behaviors per 5 minute block ([2]; Experiment One, amitriptyline, 40 minutes): 58.0 ± 33.3
Mean number of behaviors per 5 minute block ([2]; Experiment One, amitriptyline, 45 minutes): 33.0 ± 22.6
Mean number of behaviors per 5 minute block ([2]; Experiment One, amitriptyline, 50 minutes): 11.0 ± 10.3
Mean number of behaviors per 5 minute block ([2]; Experiment One, amitriptyline, 55 minutes): 2.0 ± 1.1
Mean number of behaviors per 5 minute block ([2]; Experiment One, amitriptyline, 60 minutes): 1.0 ± 0.6
Mean number of behaviors per 5 minute block ([2]; Experiment One, nortriptyline, 5 minutes): 120.0 ± 25.2
Mean number of behaviors per 5 minute block ([2]; Experiment One, nortriptyline, 10 minutes): 7.0 ± 5.3
Mean number of behaviors per 5 minute block ([2]; Experiment One, nortriptyline, 15 minutes): 2.0 ± 1.5
Mean number of behaviors per 5 minute block ([2]; Experiment One, nortriptyline, 20 minutes): 2.0 ± 1.1
Mean number of behaviors per 5 minute block ([2]; Experiment One, nortriptyline, 25 minutes): 1.0 ± 0.4
Mean number of behaviors per 5 minute block ([2]; Experiment One, nortriptyline, 30 minutes): 0.0 ± 0.0
Mean number of behaviors per 5 minute block ([2]; Experiment One, nortriptyline, 35 minutes): 0.0 ± 0.4
Mean number of behaviors per 5 minute block ([2]; Experiment One, nortriptyline, 40 minutes): 1.0 ± 1.2
Mean number of behaviors per 5 minute block ([2]; Experiment One, nortriptyline, 45 minutes): 20.0 ± 20.0
Mean number of behaviors per 5 minute block ([2]; Experiment One, nortriptyline, 50 minutes): 29.0 ± 28.6
Mean number of behaviors per 5 minute block ([2]; Experiment One, nortriptyline, 55 minutes): 29.0 ± 29.1
Mean number of behaviors per 5 minute block ([2]; Experiment One, nortriptyline, 60 minutes): 55.0 ± 36.4
Mean number of behaviors per 5 minute block ([2]; Experiment Two, 5 minutes): 64.0 ± 35.3
Mean number of behaviors per 5 minute block ([2]; Experiment Two, 10 minutes): 3.0 ± 3.0
Mean number of behaviors per 5 minute block ([2]; Experiment Two, 15 minutes): 0.0 ± 0.0
Mean number of behaviors per 5 minute block ([2]; Experiment Two, 20 minutes): 0.0 ± 0.4
Mean number of behaviors per 5 minute block ([2]; Experiment Two, 25 minutes): 0.0 ± 0.3
Mean number of behaviors per 5 minute block ([2]; Experiment Two, 30 minutes): 1.0 ± 1.1
Mean number of behaviors per 5 minute block ([2]; Experiment Two, 35 minutes): 1.0 ± 0.9
Mean number of behaviors per 5 minute block ([2]; Experiment Two, 40 minutes): 0.0 ± 0.1
Mean number of behaviors per 5 minute block ([2]; Experiment Two, 45 minutes): 8.0 ± 8.2
Mean number of behaviors per 5 minute block ([2]; Experiment Two, 50 minutes): 25.0 ± 16.4
Mean number of behaviors per 5 minute block ([2]; Experiment Two, 55 minutes): 56.0 ± 35.9
Mean number of behaviors per 5 minute block ([2]; Experiment Two, 60 minutes): 51.0 ± 36.9
